Values of other authors as cited in US20070072904A1, “PPAR active compounds” (priority 2005, published 2007).

What was measured:
[1] = recent large prospective trial
PPARδ = biological target: T1, PPARδ (Homo sapiens, UniProt Q03181)
T1 sequence (Q03181 1-441): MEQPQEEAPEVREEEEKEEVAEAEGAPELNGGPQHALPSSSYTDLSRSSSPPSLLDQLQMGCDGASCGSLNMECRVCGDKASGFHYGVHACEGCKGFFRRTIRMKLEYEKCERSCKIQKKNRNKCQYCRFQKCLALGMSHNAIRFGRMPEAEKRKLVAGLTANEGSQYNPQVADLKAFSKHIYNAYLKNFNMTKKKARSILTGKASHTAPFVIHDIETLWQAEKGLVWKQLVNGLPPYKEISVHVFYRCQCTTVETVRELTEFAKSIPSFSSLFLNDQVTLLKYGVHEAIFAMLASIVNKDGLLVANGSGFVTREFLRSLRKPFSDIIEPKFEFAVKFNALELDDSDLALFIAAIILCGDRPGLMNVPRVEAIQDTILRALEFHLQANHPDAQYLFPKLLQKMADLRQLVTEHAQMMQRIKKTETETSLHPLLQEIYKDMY

murine PPARα = biological target: T2, murine PPARα (Mus musculus, UniProt P23204)
T2 sequence (P23204 1-468): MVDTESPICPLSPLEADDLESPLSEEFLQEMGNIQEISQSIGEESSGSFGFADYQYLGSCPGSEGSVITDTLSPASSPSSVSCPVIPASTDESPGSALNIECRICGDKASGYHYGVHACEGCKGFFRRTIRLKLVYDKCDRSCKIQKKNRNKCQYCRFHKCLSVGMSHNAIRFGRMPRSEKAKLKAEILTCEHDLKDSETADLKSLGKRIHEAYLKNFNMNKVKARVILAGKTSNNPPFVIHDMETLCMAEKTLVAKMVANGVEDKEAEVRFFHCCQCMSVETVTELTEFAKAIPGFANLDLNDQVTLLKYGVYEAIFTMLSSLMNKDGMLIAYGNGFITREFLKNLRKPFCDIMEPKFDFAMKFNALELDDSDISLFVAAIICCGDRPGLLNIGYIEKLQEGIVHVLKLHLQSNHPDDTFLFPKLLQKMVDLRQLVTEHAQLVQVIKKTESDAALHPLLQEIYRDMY

| SMILES | reduction in cardiovascular events or death [1] [%] | agonist selectivity for PPARδ over PPARγ (PPARδ) | activity on murine PPARα (murine PPARα) |
| --- | --- | --- | --- |
| Cc1ccc(C)c(OCCCC(C)(C)C(=O)O)c1 [gemfibrozil] | 22 | – | – |
| CCCc1c(OCCCOc2ccc(OCC(=O)O)cc2)ccc(C(C)=O)c1O [Compound L-165041] | – | approximately 30 fold | inactive |
